Key:
[1] = tested on: MyHC (myosin heavy chain), a marker of muscle regeneration, in muscle tissue; assay: MyHC immunohistochemical staining in muscle tissue of muscle disease mouse model after injection of treated P18 cells; type: in vivo; conditions: P18 cells treated with 160 μM for 72 hours, injected via tail vein, mdx mouse, one week after injection
Procedure: (§1) Specifically, the muscle disease mouse model used was C57BL/10ScSn-Dmdmdx/J (mdx mouse) , and C57BL/10J with the same genetic background was used as a control group. All experiments were conducted using mice aged 4 to 5 months. The cells to be injected were human umbilical cord-derived young mesenchymal stem cells (control group) (P5) and replicative senescence model (P18). More specifically, the replicative senescence model (P18) was treated with 160 μM nervonic acid or an equivalent amount of DMSO for 72 hours during culture at P18 and then dissociated as single cells with 0.25% Trypsin/EDTA (Gibco, MT, USA), and 5×10^4 cells per mouse were injected via the tail vein. One week after injection, both tibial muscles of the mouse model were harvested and fixed in 4% paraformaldehyde or frozen.
Example 10. […]
In order to assess the extent of muscle regeneration in the muscle tissue of a muscle disease mouse model after injecting mesenchymal stem cells for each condition, the extent of muscle regeneration in the tissue was determined through immunohistochemical staining for MyHC (myosin heavy chain), a marker of muscle regeneration. […]

[2] = tested on: control cells (P5), human umbilical cord-derived mesenchymal stem cells; assay: Cell proliferation by CCK-8 assay, 6 days, control cells (P5); type: cell-based; conditions: 160 μM
Procedure: Example 4. Validation of gut microbiota-derived metabolite candidate for senescence control Control cells (P5) and replicative senescence-induced human umbilical cord-derived mesenchymal stem cells (P18) were treated with nervonic acid (160 μM) to analyze the effects of the gut microbiota-derived metabolite having the ability to control senescence of stem cells on the proliferation of stem cells and cell size.
Specifically, control cells (p5) and replicative senescence-induced human umbilical cord-derived mesenchymal stem cells (P18) were exposed to nervonic acid (160 μM) in culture medium, followed by culture for 6 days while replacing the medium every 3 days, and cell proliferation was assessed using CCK-8 assay.

[3] = tested on: MyHC (myosin heavy chain), a marker of muscle regeneration, in muscle tissue; assay: MyHC Western blotting in muscle tissue of muscle disease mouse model after injection of treated P18 cells; type: in vivo; conditions: P18 cells treated with 160 μM for 72 hours, injected via tail vein, mdx mouse, one week after injection
Procedure: as §1
Example 10. Comparative analysis of muscle regeneration promotion efficacy after injection of various human tissue-derived mesenchymal stem cells treated with nervonic acid into muscle disease mouse model A replicative senescence model (P18) was treated with nervonic acid (160 μM) and then injected into a muscle disease mouse model to assess the effect of nervonic acid treatment on the therapeutic efficacy of the replicative senescence model (P18) in terms of muscle regeneration in muscle tissue.
In addition, the expression of MyHC was assessed at the protein level. […]

[4] = tested on: mesenchymal stem cell-positive markers CD44, CD73, CD90, CD105, CD166 and negative markers CD11b, CD14, CD19, CD34, CD45, HLA-DR; assay: Stemness analysis by FACS in replicative senescence model (P18); type: cell-based, human; conditions: 160 μM, 3 days
Procedure: Example 6. Comparative analysis of stemness of gut microbiota-derived metabolite for senescence control A replicative senescence model (P18) was treated with nervonic acid (160 μM) to assess the effect thereof on stemness and adipogenesis.
The replicative senescence model (P18) was treated with nervonic acid (160 μM), and the expression changes of the mesenchymal stem cell-positive markers CD44, CD73, CD90, CD105, and CD166, as well as the mesenchymal stem cell-negative markers CD11b, CD14, CD19, CD34, CD45, and HLA-DR were confirmed through FACS.
Specifically, 3.6×10^6 cells treated with nervonic acid (160 μM) for 3 days were centrifuged, suspended in 1.2 ml of FACS buffer (PBS 98%+FBS 2%), and allowed to stand at room temperature for 30 minutes. Thereafter, 100 ul thereof was dispensed into each of 11 1.5 ml tubes (3×10^5 cells per tube), and a predetermined amount of antibody was added to each tube, followed by reaction at room temperature for 20 minutes in a light-blocking state. After washing by adding 200 μl of FACS buffer, centrifugation was performed at room temperature at 300 g for 5 minutes, the supernatant was removed, and the cells were suspended in 500 μl of FACS buffer and then transferred to a FACS tube for analysis.

[5] = tested on: SASP (senescence-associated secretory phenotype) markers MMP3, IGFBP5, IGFBP7; assay: qRT-PCR of SASP markers in replicative senescence model (P18); type: cell-based, human; conditions: 160 μM, 3 days
Procedure: Additionally, there is a report in which the gene expression of SASP (senescence-associated secretory phenotype) is increased in senescent cells, so the expression of MMP3, IGFBP5, and IGFBP7 was assessed at the mRNA level through qRT-PCR.
Specifically, qRT-PCR performed in this example is as follows: after treating the replicative senescence model (P18) with nervonic acid for 3 days, total RNA was extracted using Trizol (Invitrogen, MA, USA) according to the method provided by the vendor. After quantifying the extracted total RNA, random hexamer and dNTP were added, and PCR was performed at 65° C. for 5 minutes. 5× SSIV buffer, 100 mM DTT, RNAse OUT, and Superscript IV RT were added and reverse transcription was performed to synthesize cDNA, and then qRT-PCR was performed to measure gene expression, and the expression levels were compared through 2^−ΔΔCt analysis.

CCCCCCCC/C=C\CCCCCCCCCCCCCC(=O)O [nervonic acid]
MyHC expression level (immunohistochemical staining) compared to injection group treated with DMSO [1]: slightly increased
cell proliferation [2]: no change in proliferation
MyHC protein expression level (Western blotting) compared to DMSO treatment group [3]: significantly increased
expression of CD11b, a mesenchymal stem cell-negative marker [4]: decreased
expression of mesenchymal stem cell-positive markers CD44, CD73, CD90, CD105, and CD166 [4]: restored
IGFBP5 mRNA expression, fold compared to before treatment [5]: 0.62±0.03 fold
IGFBP7 mRNA expression, fold compared to before treatment [5]: 0.77±0.03 fold
MMP3 mRNA expression, fold compared to before treatment [5]: 0.76±0.04 fold

From patent US20260226417A1, “METHOD FOR INHIBITING AGING OF STEM CELLS” (ENCELL CO., LTD, priority 2023, published 2026)
